The text below walks through data of US8507445B2, “Compositions and methods of use of targeting peptides for diagnosis and therapy of human cancer” (Board of Regents, The University of Texas System, priority 2002, dated 2013).

Bridge positions count the residues as written; N and C are the ends. Ends that are not written are not given here.

Assay [1] concerns skin. Description: Phage overlay assay on human tissue sections. The format is binding. The source says:
(§1) To test the tissue specificity of the IL-11 peptide mimic, a phage overlay assay was developed to evaluate receptor-ligand interactions in tissue sections, using the motif RRAGGS (SEQ ID NO:34) (Arap et al., Nature Med. 8:121-127, 2002).

Assay [2] concerns normal prostate. The experiment in a line: Phage overlay assay on human tissue sections. The class given is binding.
Description: as §1

For assay [3], the system named is KS1767 cells. Description: Targeted phage vector transduction and peptide inhibition in cell culture. The format is cell-based, human. The settings on record: cells pre-incubated with synthetic peptide. The method, then: (§2) Targeted phage vector transduction and specific inhibition by using synthetic peptides. MDA-MB-435 breast cancer and KS1767 Karposi's sarcoma cells were cultured on 8-well chamber glass slides. The culture media was replaced by 200 μl of MEM with 2% FCS and 5×10^10 TU of RGD-4C-β-gal, HWGF-β-gal, or fd-β-gal phage vectors (at 10^5 transducing units/cell in each case). Both cell lines express high levels of the integrin and MMP receptors for those targeting peptides. Phage were incubated with cells for 3 hr at 37° C., followed by a medium change to MEM plus 10% FCS. The cells were incubated for 72 hr at 37° C. to allow for β-gal gene expression. […]
(§3) In the cell culture transduction assay, β-gal expression was analyzed by immunofluorescence. For quantification of expression in cell culture, the transduced cells were washed with PBS and permeabilized with 0.2% Triton X-100 for five minutes on ice, followed by blocking with 1% BSA in PBS. […] The degree of β-gal gene expression was determined by counting fluorescent cells in at least ten fields under an inverted microscope (Nikon, Japan). Quantification of the β-gal activity in cell culture was measured as relative light units (RLU) in a luminometer and then normalized to the amount of protein in micrograms, as determined by the Lowry method in a protein assay kit (Bio-Rad Protein Assay®; Hercules, Calif.). […]

Assay [4] has as its system MDA-MB-435 cells. The description is as above. The class given is cell-based, human. Conditions: cells pre-incubated with synthetic peptide. Here is the method: as §2, §3
Assay [5] relates to MDA-MB-435 cells. Description: Enhancement of phage transduction by genotoxic agents or trans-complementation. The class given is cell-based, human. Conditions: cells infected with targeted phage, 72 hours post-infection; drugs 10 μM. Here is the method:
Semi-confluent MDA-MB-435 cells were infected with 10^5 TU of phage per cell for 4 hours in serum free media, after which fresh medium supplemented with FCS was added (no phage were washed out or removed). In some experiments, a phage admixture of forward and reverse clones at 10^10 TU (forward/reverse molar ratio=1) was tested. Next, cells were incubated for 36 hours followed by the addition of genotoxic drugs (topotecan, 10 μM; cisplatin, 10 μM) or administration of UV radiation (15 J/m^2) with a cross-linker apparatus (UV Stratalinker Model 2400; Stratagene). At 72 hours post-infection, the cells were analyzed for transduction of a reporter gene (β-gal or GFP), and gene expression was normalized per cell number relative to controls.

For assay [6], the target named is T1, prohibitin (Mus musculus, UniProt P67778).
T1 construct: from tissue; host or cells: mouse adipose tissue extract
T1 sequence (P67778 2-272): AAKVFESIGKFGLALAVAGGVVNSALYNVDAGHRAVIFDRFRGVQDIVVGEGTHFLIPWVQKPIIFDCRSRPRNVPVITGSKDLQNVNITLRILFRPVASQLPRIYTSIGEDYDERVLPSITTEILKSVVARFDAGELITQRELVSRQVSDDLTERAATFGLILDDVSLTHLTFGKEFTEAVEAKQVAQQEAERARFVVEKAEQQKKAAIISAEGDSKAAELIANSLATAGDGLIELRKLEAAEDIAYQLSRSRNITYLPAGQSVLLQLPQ
The experiment in a line: Adipose receptor identification by binding and immunoprecipitation. The method, then:
A band of approximately 35,000 Daltons (35 kDa) was isolated from mouse adipose tissue extract that bound to […] (SEQ ID NO:81) conjugated to (KLAKLAK)2 (SEQ ID NO:1) (not shown). […] The 35 kDa band was analyzed by mass spectrometry, which identified three proteins present in the sample.
The three proteins included predominately a B cell receptor associated protein (prohibitin), apolipoprotein E, and the voltage dependent anion channel (VDAC). Further studies were performed by immunoprecipitation, using either […] (SEQ ID NO:81) or CARAC (SEQ ID NO:71) conjugated to […] (SEQ ID NO:1) and precipitating with commercially available antibodies.

Assay [7] has as its system subcutaneous white fat. Description: In vivo phage library screening for fat-homing peptides. More on the design: species or system ob/ob mice. Conditions: mouse. Here is the method:
In vivo phage-display screening of the CX7C library (C, cysteine; X, any amino acid) (Pasqualini et al., 2000; Arap et al., Nature Med. 8:121-127, 2002) for fat-homing peptides was performed (Pasqualini & Rouslahti 1996, Pasqualini et al., 2000). In each biopanning round, an adult ob/ob mouse was injected intravenously (tail vein) with 10^10 transducing units (TU) of the library. Phage (˜300 TU/g in round 1 increased to ˜10^4 TU/g in round 3) were recovered after 5 min of circulation by grinding subcutaneous white fat with a glass Dounce homogenizer, suspending the homogenate in 4° C. Dulbecco's Modified Eagle's medium (DMEM) containing proteinase inhibitors (DMEM-prin: 1 mM PMSF, 20 μg/ml aprotinin, and 1 μg/ml leupeptin) and washing with DMEM-prin. The lipid phase was discarded during the washes and only the solid-phase cellular material was used. Washed homogenates were incubated with host bacteria (log phase E. coli K91kan; OD600˜2). Bacterial cultures were plated onto Luria-Bertani agar plates containing 40 μg/ml tetracycline and 100 μg/ml kanamycin, incubated overnight at 37° C. and selected clones were bulk-amplified and used to precipitate phage for a subsequent round of biopanning. The sub-library amplified after the third round of panning was enriched for fat-specific binders using a subtraction step. […]

Assay [8] has as its target leptin receptor (OB—R) (Homo sapiens, UniProt P48357). The experiment in a line: Ligand-receptor binding assay in vitro with immobilized receptor. The settings on record: recombinant OB—R. The method, then:
(§4) Recombinant IL-11Rα vascular endothelial growth factor receptor-1 (VEGFR1) or leptin receptor (OB—R) were incubated with phage displaying the […] (SEQ ID NO:37) peptide. VEGFR1 was used as a representative vascular receptor, while OB—R was used because it shares a co-receptor with IL-11Rα. An unrelated phage clone displaying the peptide […] (SEQ ID NO:38) and insertless fd-tet phage were used as controls. […] Binding of […] (SEQ ID NO:37)-phage to IL-11Rα was specific, since it was inhibited by the native IL-11 ligand in a concentration-dependent manner (not shown). […] These observations with normal prostate tissues were followed by an examination of the expression of IL-11Rα in tumors, as discussed in the present Example.

Assay [9] has as its target vascular endothelial growth factor receptor-1 (VEGFR1) (Homo sapiens, UniProt P17948). The description is as above. Conditions: recombinant VEGFR1. The method, then: as §4
In assay [10] the target is T2, IL-11Rα (Homo sapiens, UniProt Q14626).
T2 sequence (Q14626 23-422): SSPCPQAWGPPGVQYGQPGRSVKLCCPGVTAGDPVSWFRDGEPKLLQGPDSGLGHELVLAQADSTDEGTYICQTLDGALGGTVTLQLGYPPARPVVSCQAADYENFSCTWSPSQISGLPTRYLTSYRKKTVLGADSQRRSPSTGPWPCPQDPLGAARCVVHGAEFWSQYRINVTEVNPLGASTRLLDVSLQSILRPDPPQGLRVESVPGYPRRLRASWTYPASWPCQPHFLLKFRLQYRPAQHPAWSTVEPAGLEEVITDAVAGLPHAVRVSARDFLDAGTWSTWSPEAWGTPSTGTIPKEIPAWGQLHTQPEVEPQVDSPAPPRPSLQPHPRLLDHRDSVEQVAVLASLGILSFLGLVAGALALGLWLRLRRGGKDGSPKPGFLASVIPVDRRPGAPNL
Described as above. The settings on record: recombinant IL-11Rα. The method, then: as §4

The subject of assay [11] is patient's serum antibodies, anti-GRP78 antibody, anti-CNVSDKSC antibodies. Description: Cross-inhibition assay. The class given is binding, human. Conditions: anti-GRP78 and anti-CNVSDKSC antibodies. The method, then:
Microtiter 96-well plates were coated with 10 μg/ml recombinant GRP78 (Stressgen) or GST attached to […] (SEQ ID NO:39) in 100 mM NaHCO3 overnight at 4° C., washed and then blocked with blocking buffer (2% milk, 1% casein, 0.05% Tween-20 in PBS) for 2 hours at 37° C. To determine the inhibitory activities of GRP78 or GST-[…] (SEQ ID NO:39), patient serum (1:50), anti-GRP78 (1:1000), and anti-GST-[…] (1:20) were incubated with GRP78 (50-100 μg) or GST-[…] (SEQ ID NO:39) (100-300 μg). The mixtures were incubated for 1 hour at 37° C. prior to adding to the coated wells. After 1 hour of incubation at room temperature the wells were washed several times with PBST buffer (0.05% Tween-20 in PBS). Secondary antibodies conjugated to horseradish peroxidase were added at 1:5000 dilution, incubated for 30 minutes at room temperature and washed five times with PBST buffer. Finally, the substrate 3,3′,5,5′-Tetramethylbenzidine (TMB; Calbiochem) was added and incubated for 15 minutes at room temperature before stopping the reaction by addition of 0.5M H2SO4. Absorbance at 450 nm was determined in an automated ELISA reader (Bio-Tek).

The test system of assay [12] is bone marrow metastasis from a prostate cancer. The experiment in a line: Immunohistochemical staining inhibition. Set-up: species or system human. Conditions: GRP78 staining of bone marrow metastasis. Here is the method: Paraffin sections (4 μm) were stained with purified biotinylated antibodies and peptide antibodies by immunoperoxidase detection using the Dako antigen retrieval kit and DAB (diaminobenzidine) as a substrate. All of the sections were counter-stained with hematoxylin. Purified IgGs were coupled to biotin and resolved by SDS-PAGE. The biotinylated immunopurified antibodies were used at a dilution of 1:60. Peptide C antibodies and purified pre-immune antibodies were used at 0.01 μg/μl. For the inhibition staining, peptide C antibodies were pre-incubated for 30 minutes at room temperature with the corresponding GST-peptide C (500 μg) prior to staining. For the GRP78 immunostaining, anti-GRP78 antibody (C-20) was used at 1:350 (Santa Cruz Biotechnology, Santa Cruz, Calif.). Peptide antibodies were generated in rabbits and purified using a T-gel immunoglobulin purification kit and protein G column (Pierce).

leptin receptor (OB—R), sequence (P48357 22-1165, species assumed): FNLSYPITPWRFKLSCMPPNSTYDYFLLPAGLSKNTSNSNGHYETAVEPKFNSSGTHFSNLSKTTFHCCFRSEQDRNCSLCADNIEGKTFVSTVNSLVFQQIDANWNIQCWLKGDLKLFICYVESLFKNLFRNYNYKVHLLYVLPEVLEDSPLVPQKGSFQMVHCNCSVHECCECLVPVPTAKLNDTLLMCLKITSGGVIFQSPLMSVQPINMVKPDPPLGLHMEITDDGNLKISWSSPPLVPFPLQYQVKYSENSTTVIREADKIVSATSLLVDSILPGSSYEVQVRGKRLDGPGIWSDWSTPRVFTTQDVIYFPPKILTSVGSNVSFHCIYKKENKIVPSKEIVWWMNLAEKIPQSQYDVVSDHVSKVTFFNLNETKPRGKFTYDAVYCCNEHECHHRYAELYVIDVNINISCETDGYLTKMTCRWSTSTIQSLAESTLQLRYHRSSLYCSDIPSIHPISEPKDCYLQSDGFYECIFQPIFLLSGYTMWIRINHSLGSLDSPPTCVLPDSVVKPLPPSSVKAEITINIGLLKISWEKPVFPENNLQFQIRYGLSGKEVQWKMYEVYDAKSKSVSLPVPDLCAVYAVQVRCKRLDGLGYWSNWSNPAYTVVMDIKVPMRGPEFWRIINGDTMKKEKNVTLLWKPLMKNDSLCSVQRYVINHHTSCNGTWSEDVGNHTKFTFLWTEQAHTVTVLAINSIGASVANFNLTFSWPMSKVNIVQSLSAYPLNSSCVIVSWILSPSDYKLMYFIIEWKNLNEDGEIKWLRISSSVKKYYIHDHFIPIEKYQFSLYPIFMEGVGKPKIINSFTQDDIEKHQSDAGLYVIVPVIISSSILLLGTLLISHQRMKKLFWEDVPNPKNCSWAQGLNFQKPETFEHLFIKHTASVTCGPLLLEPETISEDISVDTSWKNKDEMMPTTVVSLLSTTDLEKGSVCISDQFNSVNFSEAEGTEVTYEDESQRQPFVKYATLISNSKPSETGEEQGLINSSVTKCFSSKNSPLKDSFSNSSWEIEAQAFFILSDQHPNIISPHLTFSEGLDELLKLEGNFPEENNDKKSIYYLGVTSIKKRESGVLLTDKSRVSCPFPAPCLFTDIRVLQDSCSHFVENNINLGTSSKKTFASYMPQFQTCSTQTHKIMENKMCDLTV
vascular endothelial growth factor receptor-1 (VEGFR1), sequence (P17948 27-1338, species assumed): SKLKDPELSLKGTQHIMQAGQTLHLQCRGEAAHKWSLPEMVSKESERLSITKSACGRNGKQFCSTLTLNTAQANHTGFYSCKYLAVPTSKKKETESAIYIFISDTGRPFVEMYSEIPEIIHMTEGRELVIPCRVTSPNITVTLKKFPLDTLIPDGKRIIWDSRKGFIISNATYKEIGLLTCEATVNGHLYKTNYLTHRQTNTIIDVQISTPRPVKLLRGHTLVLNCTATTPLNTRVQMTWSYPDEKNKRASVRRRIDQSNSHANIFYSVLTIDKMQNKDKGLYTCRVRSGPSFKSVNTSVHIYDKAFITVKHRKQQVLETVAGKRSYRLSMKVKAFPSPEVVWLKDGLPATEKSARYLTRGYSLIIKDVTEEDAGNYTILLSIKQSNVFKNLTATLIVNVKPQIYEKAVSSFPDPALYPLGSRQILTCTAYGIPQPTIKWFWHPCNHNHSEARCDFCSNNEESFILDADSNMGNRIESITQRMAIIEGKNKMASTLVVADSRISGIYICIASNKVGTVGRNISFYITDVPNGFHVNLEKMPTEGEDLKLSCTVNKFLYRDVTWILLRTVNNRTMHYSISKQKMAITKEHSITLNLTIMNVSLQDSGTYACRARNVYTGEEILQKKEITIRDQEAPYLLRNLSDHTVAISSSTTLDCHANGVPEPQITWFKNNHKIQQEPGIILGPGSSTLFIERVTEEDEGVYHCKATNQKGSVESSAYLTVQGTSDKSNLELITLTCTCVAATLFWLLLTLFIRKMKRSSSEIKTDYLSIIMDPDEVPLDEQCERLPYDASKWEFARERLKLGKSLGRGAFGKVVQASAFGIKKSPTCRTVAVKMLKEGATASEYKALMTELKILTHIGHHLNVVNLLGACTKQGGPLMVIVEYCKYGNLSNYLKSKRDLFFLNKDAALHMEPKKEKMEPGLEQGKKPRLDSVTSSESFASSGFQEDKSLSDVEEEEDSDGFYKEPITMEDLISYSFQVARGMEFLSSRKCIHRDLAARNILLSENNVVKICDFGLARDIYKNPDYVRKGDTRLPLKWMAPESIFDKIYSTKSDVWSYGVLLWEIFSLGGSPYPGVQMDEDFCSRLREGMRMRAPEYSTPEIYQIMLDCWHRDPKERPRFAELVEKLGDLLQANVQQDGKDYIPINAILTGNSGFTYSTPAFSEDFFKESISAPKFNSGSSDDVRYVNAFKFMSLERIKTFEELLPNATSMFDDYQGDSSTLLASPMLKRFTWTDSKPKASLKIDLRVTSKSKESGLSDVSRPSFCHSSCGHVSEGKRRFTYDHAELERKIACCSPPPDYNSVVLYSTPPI

Take “HGGVG [motif of a control phage that localized to skin tissue, reference compound]”: the “phage binding to tissue section” value is “specifically recognized blood vessels in the skin” in assay [1] and “did not bind to prostate tissue” in [2]. On to CTTHWGFTLC (disulfide 1-10 (inferred)), for which, in assay [3], the “inhibition of HWGF-β-gal phage transduction” value is “greater than 90%”. CDCRGDCFC (also: cyclized) [RGD-4C]: the “inhibition of RGD-4C-β-gal phage transduction” value in assay [4] was “greater than 99%”. For the compound `N.N.[Cl][Pt][Cl]` [cisplatin], the “reporter gene transduction relative to controls” value in assay [5] is given as “several fold higher”. For CKGGRAKDC, in [6] (adipose tissue endothelial receptor), the receptor identified entry was “prohibitin”. Moreover, the “enrichment of prohibitin in precipitated fraction” value in assay [6] (compared to the CARAC precipitated fraction) was “over a ten-fold enrichment”. Further, the “share of all clones identified in the screen” value in [7] amounted to 4.5%.

Take CGRRAGGSC: the “phage binding to immobilized receptor” value in assay [8] is given as “Neither OB—R nor VEGFR1 showed binding”; in assay [9] it was “Neither OB—R nor VEGFR1 showed binding”; in assay [10] it was “significant amount of binding”.

For `CC[C@@]1(O)C(=O)OCc2c1cc1n(c2=O)Cc2cc3c(CN(C)C)c(O)ccc3nc2-1` [topotecan], the “reporter gene transduction relative to controls” value in [5] is on record as “several fold higher”.

For the compound “GRP78: recombinant 78 kDa glucose regulated protein (Stressgen)”, in [11], the “blocking of antibody binding” value is given as “capable of blocking binding”. Also, in [12], the inhibition of immunostaining entry is reported as “staining was inhibited”.
